Among the data in ChEMBL document CHEMBL1149795, “5,7-Dihydroxychromone-2-carboxylic acid and it's transition-metal (Mn and Zn) chelates as non-thiol radioprotective agents” (Eur J Med Chem, 2008) are LD50 and survival values, retold here.

A word on the LD50: it is the dose at which mortality reaches 50%. Read a high LD50 as lower toxicity.

SMILES strings stand for the structures.

Series [1] in a line: Toxicity against sc dosed NMRI mouse. Type of series: organism-based. The note with it: in vivo.
The subject of series [2] is Mus musculus. Description: Radioprotective activity against gamma-irradiation in NMRI mouse assessed as survival at 1.0 mmol/kg, sc administered 24 hrs prior to irradiation measured after 30 days. Type of series: functional. The note with it: light or radiation study.
The subject of series [3] is Mus musculus. The series is described as follows: Radioprotective activity against gamma-irradiation in NMRI mouse assessed as survival at 0.5 mmol/kg, sc administered 24 hrs prior to irradiation measured after 30 days. To be noted: light or radiation study. Type of series: functional.
Series [4] concerns Mus musculus. The series is described as follows: Radioprotective activity against gamma-irradiation in NMRI mouse assessed as survival at 0.5 mmol/kg, sc administered 1 hr prior to irradiation measured after 30 days. Type of series: functional. To be noted: light or radiation study.

Molecule `O=C(O)c1cc(=O)c2c(O)cc(O)cc2o1` registered an LD50 in series [1] greater than 1500 mg/kg. In the series with Mus musculus [2], the survival at 1000 µmol/kg came to 50%. Besides, in the series with Mus musculus [3], the survival at 500 µmol/kg came to 35%.
Regarding `NCCCNCCSP(=O)(O)O` [AMIFOSTINE], the median lethal dose (LD50) in series [1] is 609 mg/kg. Besides, in the series on Mus musculus [4], the survival at 500 µmol/kg turned out to be 81%.
